Laboratory results published in ChEMBL document CHEMBL1133914, “Conformationally restricted indolopiperidine derivatives as potent CCR2B receptor antagonists” (Bioorg Med Chem Lett, 2001).
Values joined by “and” are separate entries in the source; they are usually repeats but may differ in a detail not shown here. Identical values can stand only once. Active and inactive are the calls of the source. The rule behind the calls is not given here.

Experiments:
[1] = molecular target: T1, C-C chemokine receptor type 2 (Homo sapiens, UniProt P41597); assay: Inhibition of [125I]MCP-1 binding to the cloned C-C chemokine receptor type 2B expressed in CHO cells; IA means inactive; assay type: cell-based
Target sequence in this assay (P41597 whole entry, looked up): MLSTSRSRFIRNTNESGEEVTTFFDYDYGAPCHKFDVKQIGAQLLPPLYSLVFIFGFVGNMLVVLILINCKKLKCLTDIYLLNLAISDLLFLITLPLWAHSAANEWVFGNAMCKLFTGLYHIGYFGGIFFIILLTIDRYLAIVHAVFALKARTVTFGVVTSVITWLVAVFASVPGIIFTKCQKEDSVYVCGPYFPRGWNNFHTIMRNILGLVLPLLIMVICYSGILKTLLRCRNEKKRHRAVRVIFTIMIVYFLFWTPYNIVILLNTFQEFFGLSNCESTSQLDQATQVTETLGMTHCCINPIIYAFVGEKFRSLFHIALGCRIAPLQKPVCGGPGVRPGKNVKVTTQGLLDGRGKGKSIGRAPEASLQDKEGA

[2] = molecular target: T2, 5-hydroxytryptamine receptor 7 (Homo sapiens, UniProt P34969); assay: (§1) Binding affinity relative to indolopiperidine (compound 1) for 5-hydroxytryptamine 7 receptor was determined
[3] = molecular target: T3, 5-hydroxytryptamine receptor 2A (Homo sapiens, UniProt P28223); assay: Binding affinity for 5-hydroxytryptamine 2A receptor was determined
D(3) dopamine receptor [4] = molecular target: T4, D(3) dopamine receptor (Homo sapiens, UniProt P35462); assay: (§2) Binding affinity relative to indolopiperidine (compound 1) for Dopamine receptor D3 was determined
[5] = molecular target: T2, 5-hydroxytryptamine receptor 7; assay: as §1; remark: listed apart in the source
D(2) dopamine receptor [6] = molecular target: T5, D(2) dopamine receptor (Homo sapiens, UniProt P14416); assay: (§3) Binding affinity relative to indolopiperidine (compound 1) for Dopamine receptor D2 was determined
D(2) dopamine receptor [7] = molecular target: T5, D(2) dopamine receptor; assay: as §3; remark: listed apart in the source
[8] = molecular target: T6, 5-hydroxytryptamine receptor 1F (Homo sapiens) (UniProt P30939); assay: Binding affinity relative to indolopiperidine (compound 1) for 5-hydroxytryptamine 1F receptor was determined
T6 sequence (whole entry): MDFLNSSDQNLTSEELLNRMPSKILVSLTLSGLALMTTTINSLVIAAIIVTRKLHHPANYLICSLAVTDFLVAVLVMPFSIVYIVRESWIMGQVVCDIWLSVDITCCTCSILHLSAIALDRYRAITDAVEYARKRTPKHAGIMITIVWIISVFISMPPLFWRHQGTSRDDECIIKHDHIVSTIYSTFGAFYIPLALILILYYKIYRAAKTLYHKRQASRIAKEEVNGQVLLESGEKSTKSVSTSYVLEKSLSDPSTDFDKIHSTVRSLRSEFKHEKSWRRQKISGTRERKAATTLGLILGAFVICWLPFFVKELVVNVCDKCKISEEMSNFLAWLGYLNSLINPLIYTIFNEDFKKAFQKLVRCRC

[9] = molecular target: T1, C-C chemokine receptor type 2; assay: (§4) Inhibition of [125I]MCP-1 binding to the cloned C-C chemokine receptor type 2B expressed in CHO cells; assay type: cell-based
Target sequence in this assay (P41597 whole entry): as the sequence (P41597 whole entry, looked up) above

[10] = molecular target: T7, 5-hydroxytryptamine receptor 1F (Homo sapiens, UniProt P30939); assay: Binding affinity for 5-hydroxytryptamine 1F receptor was determined
T7 sequence (P30939 whole entry): T6 sequence (whole entry)

[11] = molecular target: T8, 5-hydroxytryptamine receptor 1A (Homo sapiens, UniProt P08908); assay: Binding affinity for 5-hydroxytryptamine 1A receptor was determined
T8 sequence (P08908 whole entry): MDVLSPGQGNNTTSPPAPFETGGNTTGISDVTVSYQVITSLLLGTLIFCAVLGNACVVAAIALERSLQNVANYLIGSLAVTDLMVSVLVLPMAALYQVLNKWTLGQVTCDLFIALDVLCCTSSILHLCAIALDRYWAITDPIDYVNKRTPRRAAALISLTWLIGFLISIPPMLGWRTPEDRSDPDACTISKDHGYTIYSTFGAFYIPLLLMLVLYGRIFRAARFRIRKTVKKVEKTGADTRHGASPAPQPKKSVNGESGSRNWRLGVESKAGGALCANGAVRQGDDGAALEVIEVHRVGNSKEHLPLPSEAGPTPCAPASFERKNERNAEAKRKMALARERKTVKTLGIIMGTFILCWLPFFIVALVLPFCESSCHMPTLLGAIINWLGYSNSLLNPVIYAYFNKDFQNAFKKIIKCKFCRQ

[12] = molecular target: T9, 5-hydroxytryptamine receptor 2B (Homo sapiens, UniProt P41595); assay: Binding affinity relative to indolopiperidine (compound 1) for 5-hydroxytryptamine 2B receptor was determined
[13] = molecular target: T10, 5-hydroxytryptamine receptor 6 (Homo sapiens, UniProt P50406); assay: Binding affinity relative to indolopiperidine (compound 1) for 5-hydroxytryptamine 6 receptor was determined
[14] = molecular target: T11, 5-hydroxytryptamine receptor 2C (Homo sapiens) (UniProt P28335); assay: Binding affinity relative to indolopiperidine (compound 1) for 5-hydroxytryptamine 2C receptor was determined
T11 sequence (whole entry): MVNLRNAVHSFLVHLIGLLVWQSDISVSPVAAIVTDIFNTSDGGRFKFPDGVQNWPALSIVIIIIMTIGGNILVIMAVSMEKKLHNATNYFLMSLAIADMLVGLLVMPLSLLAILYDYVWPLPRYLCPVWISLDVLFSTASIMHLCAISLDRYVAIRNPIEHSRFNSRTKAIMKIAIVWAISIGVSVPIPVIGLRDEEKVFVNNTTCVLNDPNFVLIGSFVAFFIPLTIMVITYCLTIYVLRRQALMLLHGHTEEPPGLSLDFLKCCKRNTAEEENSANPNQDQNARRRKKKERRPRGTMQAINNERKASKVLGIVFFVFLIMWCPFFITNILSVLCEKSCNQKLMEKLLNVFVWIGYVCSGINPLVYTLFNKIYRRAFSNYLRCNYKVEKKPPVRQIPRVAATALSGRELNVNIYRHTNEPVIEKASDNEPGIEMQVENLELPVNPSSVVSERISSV

[15] = molecular target: T10, 5-hydroxytryptamine receptor 6; assay: Binding affinity for 5-hydroxytryptamine 6 receptor was determined
[16] = molecular target: T12, 5-hydroxytryptamine receptor 2C (Homo sapiens, UniProt P28335); assay: Binding affinity for 5-hydroxytryptamine 2C receptor was determined
T12 sequence (P28335 whole entry): T11 sequence (whole entry)

[17] = molecular target: T13, 5-hydroxytryptamine receptor 1A (Homo sapiens) (UniProt P08908); assay: Binding affinity relative to indolopiperidine (compound 1) for 5-hydroxytryptamine 1A receptor was determined
T13 sequence (whole entry): T8 sequence (P08908 whole entry)

[18] = molecular target: T14, 5-hydroxytryptamine receptor 1E (Homo sapiens, UniProt P28566); assay: Binding affinity relative to indolopiperidine (compound 1) for 5-hydroxytryptamine 1E receptor was determined
[19] = molecular target: T1, C-C chemokine receptor type 2; assay: Binding affinity relative to indolopiperidine (compound 1) forC-C chemokine receptor type 2B was determined
Target sequence in this assay (P41597 whole entry, looked up): as the sequence (P41597 whole entry, looked up) above

[20] = molecular target: T15, 5-hydroxytryptamine receptor 1B (Homo sapiens, UniProt P28222); assay: Binding affinity for 5-hydroxytryptamine 1B receptor was determined
[21] = molecular target: T1, C-C chemokine receptor type 2; assay: Binding affinity for C-C chemokine receptor type 2B was determined
Target sequence in this assay (P41597 whole entry): as the sequence (P41597 whole entry, looked up) above

[22] = molecular target: T15, 5-hydroxytryptamine receptor 1B; assay: Binding affinity relative to indolopiperidine (compound 1) for 5-hydroxytryptamine 1B receptor was determined
[23] = molecular target: T9, 5-hydroxytryptamine receptor 2B; assay: Binding affinity for 5-hydroxytryptamine 2B receptor was determined
D(3) dopamine receptor [24] = molecular target: T4, D(3) dopamine receptor; assay: as §2; remark: listed apart in the source
[25] = molecular target: T14, 5-hydroxytryptamine receptor 1E; assay: Binding affinity for 5-hydroxytryptamine 1E receptor was determined
[26] = molecular target: T3, 5-hydroxytryptamine receptor 2A; assay: Binding affinity relative to indolopiperidine (compound 1) for 5-hydroxytryptamine 2A receptor was determined
[27] = molecular target: T1, C-C chemokine receptor type 2; assay: Inhibition of [125I]MCP-1 binding to the cloned C-C chemokine receptor type 2B expressed in CHO cells; IA mean inactive; assay type: cell-based
Target sequence in this assay (P41597 whole entry, looked up): as the sequence (P41597 whole entry, looked up) above

[28] = molecular target: T1, C-C chemokine receptor type 2; assay: as §4; assay type: cell-based; remark: listed apart in the source
Target sequence in this assay (P41597 whole entry): as the sequence (P41597 whole entry, looked up) above

[29] = molecular target: T1, C-C chemokine receptor type 2; assay: Binding affinity relative to indolopiperidine (compound 1) for C-C chemokine receptor type 2B was determined
Target sequence in this assay (P41597 whole entry, looked up): as the sequence (P41597 whole entry, looked up) above

[30] = molecular target: T3, 5-hydroxytryptamine receptor 2A; assay: Binding affinity relative to indolopiperidine (compound 1)for 5-hydroxytryptamine 2A receptor was determined
[31] = molecular target: T1, C-C chemokine receptor type 2
Target sequence in this assay (P41597 whole entry, looked up): as the sequence (P41597 whole entry, looked up) above

[32] = molecular target: T2, 5-hydroxytryptamine receptor 7; assay: Binding affinity for 5-hydroxytryptamine 7 receptor was determined
D(3) dopamine receptor [33] = molecular target: T4, D(3) dopamine receptor; assay: Binding affinity for Dopamine receptor D3 was determined
D(2) dopamine receptor [34] = molecular target: T5, D(2) dopamine receptor; assay: Binding affinity for Dopamine receptor D2 was determined
[35] = molecular target: T1, C-C chemokine receptor type 2; assay: as §4; assay type: cell-based; remark: listed apart in the source
Target sequence in this assay (P41597 whole entry): as the sequence (P41597 whole entry, looked up) above

T9 sequence (P41595 whole entry): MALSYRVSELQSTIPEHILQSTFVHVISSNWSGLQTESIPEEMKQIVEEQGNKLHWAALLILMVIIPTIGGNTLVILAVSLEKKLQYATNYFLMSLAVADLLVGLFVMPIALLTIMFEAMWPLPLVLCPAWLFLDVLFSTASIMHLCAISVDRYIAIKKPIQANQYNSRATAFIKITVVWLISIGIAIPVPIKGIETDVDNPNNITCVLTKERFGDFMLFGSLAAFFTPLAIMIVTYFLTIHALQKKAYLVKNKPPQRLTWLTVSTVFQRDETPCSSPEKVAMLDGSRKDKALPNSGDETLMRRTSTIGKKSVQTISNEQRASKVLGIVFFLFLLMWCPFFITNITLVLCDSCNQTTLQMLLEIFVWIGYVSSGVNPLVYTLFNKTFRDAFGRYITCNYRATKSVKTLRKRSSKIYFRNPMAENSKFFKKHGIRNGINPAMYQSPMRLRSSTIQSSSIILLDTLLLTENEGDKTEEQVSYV
T10 sequence (P50406 whole entry): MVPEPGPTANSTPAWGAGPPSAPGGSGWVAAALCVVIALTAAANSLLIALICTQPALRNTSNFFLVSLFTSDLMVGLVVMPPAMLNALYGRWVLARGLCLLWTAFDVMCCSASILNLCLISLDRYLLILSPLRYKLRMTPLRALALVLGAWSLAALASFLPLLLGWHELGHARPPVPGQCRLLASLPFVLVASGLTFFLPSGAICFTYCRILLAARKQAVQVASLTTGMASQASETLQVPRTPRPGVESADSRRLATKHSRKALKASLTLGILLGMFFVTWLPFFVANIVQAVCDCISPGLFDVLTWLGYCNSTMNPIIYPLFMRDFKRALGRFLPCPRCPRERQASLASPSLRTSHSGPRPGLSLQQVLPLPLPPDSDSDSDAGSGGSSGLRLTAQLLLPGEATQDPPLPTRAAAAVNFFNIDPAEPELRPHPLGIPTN
T2 sequence (P34969 whole entry): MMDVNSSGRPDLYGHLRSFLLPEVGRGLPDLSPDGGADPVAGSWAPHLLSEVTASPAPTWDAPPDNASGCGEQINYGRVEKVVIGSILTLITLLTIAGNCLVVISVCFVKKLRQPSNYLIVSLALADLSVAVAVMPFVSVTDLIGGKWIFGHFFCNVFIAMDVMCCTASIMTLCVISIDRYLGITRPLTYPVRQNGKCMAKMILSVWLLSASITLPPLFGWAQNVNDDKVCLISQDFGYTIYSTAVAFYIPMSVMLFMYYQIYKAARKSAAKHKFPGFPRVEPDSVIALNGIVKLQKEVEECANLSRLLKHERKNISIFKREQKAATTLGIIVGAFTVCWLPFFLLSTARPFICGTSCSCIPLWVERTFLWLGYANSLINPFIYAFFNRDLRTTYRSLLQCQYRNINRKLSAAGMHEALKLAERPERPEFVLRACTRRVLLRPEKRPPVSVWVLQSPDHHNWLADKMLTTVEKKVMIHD
T3 sequence (P28223 whole entry): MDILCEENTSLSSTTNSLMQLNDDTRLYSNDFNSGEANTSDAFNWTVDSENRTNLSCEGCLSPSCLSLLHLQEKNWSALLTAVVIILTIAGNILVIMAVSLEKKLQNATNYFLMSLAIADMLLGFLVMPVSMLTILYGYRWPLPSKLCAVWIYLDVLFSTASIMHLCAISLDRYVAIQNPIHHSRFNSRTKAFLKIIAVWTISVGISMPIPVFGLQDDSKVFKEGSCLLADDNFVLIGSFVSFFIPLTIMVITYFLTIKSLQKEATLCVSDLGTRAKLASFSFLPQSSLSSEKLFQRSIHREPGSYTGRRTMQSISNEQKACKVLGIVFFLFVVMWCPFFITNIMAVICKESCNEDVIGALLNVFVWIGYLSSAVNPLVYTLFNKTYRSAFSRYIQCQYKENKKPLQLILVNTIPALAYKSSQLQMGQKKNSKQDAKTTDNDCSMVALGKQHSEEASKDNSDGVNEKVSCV
T14 sequence (P28566 whole entry): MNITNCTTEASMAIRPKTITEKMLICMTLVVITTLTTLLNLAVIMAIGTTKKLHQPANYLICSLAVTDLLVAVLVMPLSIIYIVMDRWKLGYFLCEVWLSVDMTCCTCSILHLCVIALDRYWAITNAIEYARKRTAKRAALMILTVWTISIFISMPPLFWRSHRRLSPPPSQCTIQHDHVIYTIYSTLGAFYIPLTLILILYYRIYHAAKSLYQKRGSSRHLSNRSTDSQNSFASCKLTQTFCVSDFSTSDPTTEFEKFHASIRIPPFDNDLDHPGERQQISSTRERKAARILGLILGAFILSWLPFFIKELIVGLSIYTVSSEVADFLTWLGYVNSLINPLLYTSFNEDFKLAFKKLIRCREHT
T4 sequence (P35462 whole entry): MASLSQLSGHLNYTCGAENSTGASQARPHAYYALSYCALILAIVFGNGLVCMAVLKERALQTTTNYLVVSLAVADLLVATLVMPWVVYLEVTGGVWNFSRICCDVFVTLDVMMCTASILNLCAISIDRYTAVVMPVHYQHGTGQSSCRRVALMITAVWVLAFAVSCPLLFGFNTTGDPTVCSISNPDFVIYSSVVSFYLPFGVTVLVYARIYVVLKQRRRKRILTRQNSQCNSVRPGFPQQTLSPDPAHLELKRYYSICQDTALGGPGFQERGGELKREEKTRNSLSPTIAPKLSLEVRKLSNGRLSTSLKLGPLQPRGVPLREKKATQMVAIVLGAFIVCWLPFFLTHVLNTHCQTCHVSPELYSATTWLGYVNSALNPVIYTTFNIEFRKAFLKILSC
T5 sequence (P14416 whole entry): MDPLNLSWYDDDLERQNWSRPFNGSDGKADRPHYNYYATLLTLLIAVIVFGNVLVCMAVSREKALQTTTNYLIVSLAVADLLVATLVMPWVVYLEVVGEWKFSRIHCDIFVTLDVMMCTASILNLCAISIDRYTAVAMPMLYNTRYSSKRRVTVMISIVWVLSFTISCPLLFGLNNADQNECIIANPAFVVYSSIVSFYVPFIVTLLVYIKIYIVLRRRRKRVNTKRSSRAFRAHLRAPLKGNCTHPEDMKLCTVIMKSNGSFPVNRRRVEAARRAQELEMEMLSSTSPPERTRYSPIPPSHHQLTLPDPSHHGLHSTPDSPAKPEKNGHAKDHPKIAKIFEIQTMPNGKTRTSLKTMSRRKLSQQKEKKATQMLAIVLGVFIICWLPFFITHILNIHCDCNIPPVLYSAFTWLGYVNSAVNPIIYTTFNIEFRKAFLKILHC
T15 sequence (P28222 whole entry): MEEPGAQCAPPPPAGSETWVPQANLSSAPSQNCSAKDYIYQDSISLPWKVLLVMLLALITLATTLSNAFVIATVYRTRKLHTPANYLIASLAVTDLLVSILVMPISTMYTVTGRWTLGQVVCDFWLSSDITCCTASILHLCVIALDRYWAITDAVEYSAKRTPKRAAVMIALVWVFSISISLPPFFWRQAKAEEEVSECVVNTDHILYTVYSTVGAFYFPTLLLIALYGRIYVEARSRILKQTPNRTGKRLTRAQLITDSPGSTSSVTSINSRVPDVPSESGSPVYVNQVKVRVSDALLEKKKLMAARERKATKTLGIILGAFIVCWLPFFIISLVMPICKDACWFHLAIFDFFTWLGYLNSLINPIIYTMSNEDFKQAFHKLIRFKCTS

In the case of `O=C(/C=C/c1ccc(Cl)c(Cl)c1)Nc1ccc(CN2CCC(c3c[nH]c4ccccc34)CC2)cc1`, the “Log Ki” value [1] is reported as “inactive”.
With `O=C(/C=C/c1ccc(Cl)c(Cl)c1)N[C@H]1CC[C@@H](CN2[C@@H]3CC[C@H]2C[C@H](c2c[nH]c4ccc(O)cc24)C3)CC1` the Delta pKi [2] was > -1.9, the Ki [3] was > 20000 nM and the Ki (D(3) dopamine receptor [4]) was 2510 nM. For the same compound, the “Log Ki” value [5] was < -6.1, the Delta pKi (D(2) dopamine receptor [6]) was -1.9 and the Ki (D(2) dopamine receptor [7]) was 1260 nM. For the same compound, the Delta pKi [8] was > -3, the Ki [9] was 39.8 nM and the Ki [10] was > 3160 nM. It also gave a Ki [11] of 7940 nM, a Delta pKi [12] of -1.3 and a Delta pKi [13] of -1.4. For the same compound, the Delta pKi [14] was > -1.6, the Ki [15] was 2000 nM and the Ki [16] was > 3160 nM. For the same compound, the Delta pKi [17] was -1.9, the Delta pKi [18] was > -3.2 and the Delta pKi [19] was 0.1. It also gave a Ki [20] of 1000 nM, a Ki [21] of 40 nM and a Delta pKi [22] of -1.9. For the same compound, the Ki [23] was 501 nM, the Delta pKi (D(3) dopamine receptor [24]) was -2.5 and the Ki [25] was > 6310 nM. It also gave a Delta pKi [26] of -3.
`O=C(/C=C/c1ccc(Cl)c(Cl)c1)NCc1cccc(CN2CCC(c3c[nH]c4ccccc34)CC2)c1` was tested, and the “Log Ki” value [27] was “inactive”.
In the case of `O=C(/C=C/c1ccc(Cl)c(Cl)c1)N[C@H]1CC[C@@H](CN2CCC(c3c[nH]c4ccc(O)cc34)CC2)CC1`, the Delta pKi [2] is reported as -0.4, the Delta pKi (D(2) dopamine receptor [6]) is reported as -0.8 and the Ki [28] is reported as 79 nM and 126 nM. For the same compound, the Delta pKi [8] was -2.6, the Ki [9] was 79.4 nM and the Delta pKi [12] was -0.5. For the same compound, the Delta pKi [13] was -0.9, the Delta pKi [14] was -0.4 and the Delta pKi [17] was -0.7. For the same compound, the Delta pKi [29] was -0.2, the Delta pKi [18] was -1.4 and the Delta pKi [22] was -1.2. It also gave a Delta pKi [30] of -0.1 and a Delta pKi (D(3) dopamine receptor [24]) of -0.9.
For `O=C(/C=C/c1ccc(Cl)c(Cl)c1)NCCCCCN1[C@@H]2CC[C@H]1CC(c1c[nH]c3ccc(O)cc13)C2` (stereo in doubt) [listing 1 of 2 here], the Delta pKi [2] was -1.5, the Delta pKi (D(2) dopamine receptor [6]) was -1.7 and the Delta pKi [8] was -2.7. It also gave a Delta pKi [12] of -1.5, a Delta pKi [13] of -0.9 and a Delta pKi [14] of -0.5. For the same compound, the Delta pKi [17] was -1.1, the Delta pKi [18] was -3.2 and the Delta pKi [22] was -1.6. For the same compound, the Delta pKi (D(3) dopamine receptor [24]) was -1.4, the Delta pKi [26] was -0.9 and the Delta pKi [31] was -0.7.
For `O=C(/C=C/c1ccc(Cl)c(Cl)c1)NCCCCCN1CCC(c2c[nH]c3ccc(O)cc23)CC1`, the Ki [3] was 20 nM, the Ki [10] was 3.16 nM and the Ki [11] was 100 nM. The Ki [15] was 79.4 nM, the Ki [16] was 79.4 nM and the Ki [32] was 63.1 nM. For the same compound, the Ki [20] was 12.6 nM, the Ki (D(3) dopamine receptor [33]) was 7.94 nM and the Ki [23] was 25.1 nM. For the same compound, the Ki [25] was 6.31 nM and the Ki (D(2) dopamine receptor [34]) was 15.8 nM.
In the case of `O=C(/C=C/c1ccc(Cl)c(Cl)c1)N[C@H]1CC[C@@H](CN2CCC(c3c[nH]c4ccccc34)CC2)CC1`, the Ki [35] is reported as 126 nM.
For `O=C(/C=C/c1ccc(Cl)c(Cl)c1)NCCCCCN1[C@@H]2CC[C@H]1CC(c1c[nH]c3ccc(O)cc13)C2` (single isomer, unassigned), the Ki [28] was 630 nM and the Ki [9] was 631 nM.
Compound `O=C(/C=C/c1ccc(Cl)c(Cl)c1)NCCCCCN1[C@@H]2CC[C@H]1CC(c1c[nH]c3ccc(O)cc13)C2` (stereo in doubt) [listing 2 of 2 here] has a Ki [35] of 251 nM and a Ki [9] of 251 nM.
